According to paper PMC7008598 (Science signaling, 2019):

Legend:
[1] = target: T1, TNFR1 PLAD dimer (Homo sapiens, UniProt P19438); test: Native gel characterization of soluble TNFR1 PLAD dimer; conditions: compounds 200 μM
T1 sequence (P19438 30-82): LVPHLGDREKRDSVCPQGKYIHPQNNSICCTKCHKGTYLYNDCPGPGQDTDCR

[2] = system: TNFR1-stimulated NF-κB activation; test: LTα-induced NF-κB activation luciferase assay in HEK293 cells; format: cell-based, human
[3] = system: TNFR1-stimulated NF-κB activation; conditions: read-out: absolute IC50, inhibition of ligand-induced NF-κB activation; cited from earlier work
[4] = target: T2, TNFR1 ECD dimer (Homo sapiens, UniProt P19438); test: Native gel characterization of soluble TNFR1 ECD dimer; format: biochemical; conditions: compounds 200 μM
T2 sequence (P19438 30-211 limits assumed): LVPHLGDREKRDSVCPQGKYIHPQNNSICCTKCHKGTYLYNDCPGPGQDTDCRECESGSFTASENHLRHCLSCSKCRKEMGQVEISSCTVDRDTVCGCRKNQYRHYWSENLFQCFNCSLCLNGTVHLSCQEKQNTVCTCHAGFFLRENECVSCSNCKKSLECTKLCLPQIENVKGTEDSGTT

[5] = target: T3, human TNFR1 ECD (Homo sapiens, UniProt P19438); test: SPR binding assay on immobilized TNFR1 ECD
T3 sequence (P19438 30-211 limits assumed): T2 sequence (P19438 30-211 limits assumed)

[6] = system: basal NF-κB activation in TNFR1 KO HAP1 cells; test: Basal NF-κB activation in TNFR1 KO HAP1 cells; format: cell-based, human
[7] = system: TRADD-induced NF-κB activation; test: TRADD-induced NF-κB activation in HEK293 cells; format: cell-based, human; conditions: HEK293, TRADD overexpression, 0.1 to 200 μM
[8] = target: the molecule itself; test: native gel or EMSA
[9] = target: T4, soluble FLAG-tagged lymphotoxin-α (LTα), P01374; test: native gel or EMSA; conditions: remark: other sources report otherwise
T4 chain: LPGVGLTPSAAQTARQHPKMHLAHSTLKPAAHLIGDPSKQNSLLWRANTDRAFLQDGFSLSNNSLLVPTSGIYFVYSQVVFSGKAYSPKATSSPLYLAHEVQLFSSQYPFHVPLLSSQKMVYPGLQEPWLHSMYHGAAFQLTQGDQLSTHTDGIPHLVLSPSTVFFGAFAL

[10] = target: T5, recombinant human TNFR1 extracellular domain (human, UniProt P19438 30-211); test: SPR
T5 sequence (looked up): T2 sequence (P19438 30-211 limits assumed)

With COc1cc(C(=O)NS(=O)(=O)c2ccccc2C)ccc1Cc1cn(C)c2ccc(NC(=O)OC3CCCC3)cc12 [zafirlukast] the “disruption of soluble PLAD dimers” value [1] was “disrupted”, the “extent of inhibition of NF-κB activation” value ([2]; HEK293, LTα, maximal inhibition) was 55% and the “IC50 for inhibition of NF-κB in the presence of H398” value ([2]; presence of H398 antibody) was “unchanged”. The IC50 [3] was 50 µM, the “disruption of TNFR1 ECD dimer” value [4] was “disrupted” and the Kd [5] was 86 µM. The “noncompetitive binding of LTα and compound to TNFR1 ECD” value ([5]; SPR, LTα 50 nM, compound 200 μM) was “equal to the sum of the individual response”, the “LTα binding affinity to TNFR1 ECD in the presence of compound” value ([5]; SPR, compound at saturating 200 μM) was “essentially unchanged” and the “competition with H398 for binding TNFR1” value ([5]; SPR, compounds 200 μM, H398 at 1.0 nM) was “did not compete with H398”. For the same molecule, the “effect on basal level of NF-κB activation in TNFR1 KO cells (specificity)” value [6] was “almost no effect on basal activity” and the “effect on TRADD-induced NF-κB activation” value [7] was “little effect”.

B1: FLAG-tagged TNFR1 PLAD (residues 30 to 82) (domain or fragment, UniProt P19438 30-82, looked up)
chain: T1 sequence (P19438 30-82)
In the case of B1, the “stoichiometry N” value [8] is reported as 2.

B2: soluble FLAG-tagged lymphotoxin-α (LTα) (ligand, UniProt P01374 35-205, looked up)
chain: T4 chain
B2 gave a stoichiometry N [9] of 3 and a Kd [10] of 0.037 µM.
